Reference: ChEMBL document CHEMBL4118272, “The inhibitory effect of kokusaginine on the growth of human breast cancer cells and MDR-resistant cells is mediated by the inhibition of tubulin assembly” (Bioorg Med Chem Lett, 2018)
pIC50: −log10 of the molar value. Calls of active or inactive are those of the source. No cut-off for these calls is given here.

Columns and labels:
[1] = organism: Sus scrofa; experiment: Inhibition of porcine MAP-rich tubulin polymerization at 20 uM measured every 30 secs for 30 mins
[2] = organism: Homo sapiens; settings: 10 uM
Description: Inhibition of P-gp in human MCF7/ADR cells assessed as increase in intracellular Rh123 accumulation at 10 uM after 2 hrs by flow cytometry

[3] = Resistance factor, ratio of IC50 for human MDA-MB-231/ADR cells to IC50 for human MDA-MB-231 cells; assay type: functional
[4] = Growth inhibition of human MDA-MB-231/ADR cells after 48 hrs by MTT assay; assay type: functional; settings: MDA-MB-231, 48 h
[5] = system: MCF7; experiment: Growth inhibition of human MCF7 cells after 48 hrs by MTT assay; assay type: functional, cell-based; settings: MCF7, 48 h
[6] = Resistance factor, ratio of IC50 for human MCF7/ADR cells to IC50 for human MCF7 cells; assay type: functional
[7] = system: NCI/ADR-RES; experiment: Growth inhibition of human MCF7/ADR cells after 48 hrs by MTT assay; assay type: functional, cell-based
[8] = molecular target: T1, Tubulin (Homo sapiens) (UniProt P68371+Q9H4B7+P0DPH7+P68366+Q13509+Q71U36+P04350+Q3ZCM7+P07437+P68363+Q9BQE3+Q6PEY2+Q13885+Q9BVA1+Q9BUF5); experiment: Displacement of [3H]colchicine from tubulin (unknown origin) at 1 uM after 10 mins relative to control; assay type: protein-complex assay
[9] = organism: Sus scrofa; experiment: Inhibition of porcine MAP-rich tubulin polymerization measured every 30 secs for 30 mins
[10] = organism: Homo sapiens; experiment: Inhibition of P-gp in human MCF7/ADR cells assessed as increase in intracellular Rh123 accumulation at 24 uM after 2 hrs by flow cytometry; assay type: cell-based
[11] = system: NCI/ADR-RES; experiment: Induction of apoptosis in human MCF7/ADR cells at 12 uM after 24 hrs by Annexin V-FITC/PI double staining based flow cytometry relative to control; assay type: functional
[12] = system: MDA-MB-231; experiment: Growth inhibition of human MDA-MB-231 cells after 48 hrs by MTT assay; assay type: functional, cell-based; settings: MDA-MB-231, 48 h
[13] = system: MCF7; experiment: Induction of apoptosis in human MCF7 cells at 24 uM after 24 hrs by Annexin V-FITC/PI double staining based flow cytometry relative to control; assay type: functional
[14] = system: MCF7; experiment: Downregulation of P-gp protein expression level in human MCF7 cells assessed as P-gp protein level up to 24 uM by Western blot analysis; assay type: functional
[15] = system: NCI/ADR-RES; experiment: Downregulation of P-gp mRNA level in human MCF7/ADR cells by qRT-PCR analysis; assay type: functional, cell-based
[16] = system: NCI/ADR-RES; experiment: Induction of apoptosis in human MCF7/ADR cells at 24 uM after 24 hrs by Annexin V-FITC/PI double staining based flow cytometry relative to control; assay type: functional
[17] = molecular target: T1, Tubulin (Homo sapiens); experiment: Displacement of [3H]colchicine from tubulin (unknown origin) at 5 uM after 10 mins relative to control; assay type: protein-complex assay
[18] = system: MCF7; experiment: Induction of apoptosis in human MCF7 cells at 6 uM after 24 hrs by Annexin V-FITC/PI double staining based flow cytometry relative to control; assay type: functional
[19] = molecular target: Tubulin; experiment: Inhibition of tubulin (unknown origin) polymerization preincubated for 15 mins followed by GTP addition measured for 20 mins by turbidimetric analysis; assay type: protein-complex assay, Homo sapiens
[20] = system: NCI/ADR-RES; experiment: Downregulation of P-gp protein expression level in human MCF7/ADR cells assessed as P-gp protein level up to 24 uM by Western blot analysis (reference value: 0.67); assay type: functional
[21] = system: MCF7; experiment: Induction of apoptosis in human MCF7 cells at 12 uM after 24 hrs by Annexin V-FITC/PI double staining based flow cytometry relative to control; assay type: functional
[22] = system: NCI/ADR-RES; experiment: Downregulation of P-gp expression level in human MCF7/ADR cells assessed as P-gp mRNA level up to 24 uM by qRT-PCR analysis (reference value: 17.5); assay type: functional
[23] = system: NCI/ADR-RES; experiment: Induction of apoptosis in human MCF7/ADR cells at 6 uM after 24 hrs by Annexin V-FITC/PI double staining based flow cytometry relative to control; assay type: functional

COc1cc2c(c(OC)c1OC)-c1ccc(OC)c(=O)cc1[C@@H](NC(C)=O)CC2
inhibition [1]: Active

COc1ccc(CCN(C)CCCC(C#N)(c2ccc(OC)c(OC)c2)C(C)C)cc1OC (stereo not drawn)
inhibition [2]: Active

COc1cccc2c1C(=O)c1c(O)c3c(c(O)c1C2=O)C[C@@](O)(C(=O)CO)C[C@@H]3O[C@H]1C[C@H](N)[C@H](O)[C@H](C)O1.Cl [DOXORUBICIN HYDROCHLORIDE]
Ratio IC50 [3]: 22.72 | pIC50 [4]: 4.30 | pIC50 [5]: 5.76 | Ratio IC50 [6]: 29.5 | pIC50 [7]: 4.29

COc1cc2nc3occc3c(OC)c2cc1OC [KOKUSAGININE]
inhibition [8]: 92% | inhibition [9]: Dose-dependent effect | inhibition [10]: Active | Activity [11]: 45.35% | Ratio IC50 [3]: 1.13 | pIC50 [12]: 5.05 | Activity [13]: 39.52% | Activity [14]: 0.02 - 0.09 | Activity [15]: Dose-dependent effect | pIC50 [4]: 4.99 | Activity [16]: 63.29% | inhibition [17]: 98% | pIC50 [5]: 5.14 | Ratio IC50 [6]: 0.64 | Activity [18]: 12.08% | pIC50 [19]: 6.09 | Activity [20]: 0.19 | pIC50 [7]: 5.34 | Activity [21]: 21.63% | Activity [22]: 6.4 | Activity [23]: 28.16%
